This note sets out measurements from ChEMBL document CHEMBL3045176, “Occurrence of the antifeedant 14,15-dihydroajugapitin in the aerial parts of Ajuga iva from Algeria” (2000).

One test deals with Spodoptera littoralis. Kind of test: Antifeedant activity against final stadium larvae of Spodoptera littoralis in compound-treated sucrose-treated glass-fibre disks assessed as amount of disks eaten at 100 ppm after 18 hr by binary choice feeding bioassay. The class given is functional.
The next test has as its system Spodoptera frugiperda. In words: Antifeedant activity against final stadium larvae of Spodoptera frugiperda (fall armyworm) in compound-treated sucrose-treated glass-fibre discs assessed as amount of discs eaten at 100 ppm after 18 hr by binary choice feeding bioassay. The class given is functional.

Turning to `CC[C@H](C)C(=O)O[C@H]1[C@H](O)C[C@@H]2[C@@](C)([C@@H]3C[C@H]4CCO[C@H]4O3)[C@H](C)C[C@H](OC(C)=O)[C@@]2(COC(C)=O)[C@@]12CO2` [14,15-DIHYDROAJUGAPITIN], the figures for the AFI in the test with Spodoptera littoralis and with Spodoptera frugiperda were 76% and 74%, respectively.

As to `CC[C@H](C)C(=O)O[C@H]1[C@@H](O)C[C@@H]2[C@@](C)([C@@H]3C[C@H]4CCO[C@H]4O3)[C@H](C)C[C@H](OC(C)=O)[C@@]2(COC(C)=O)[C@@]12CO2` [IVAIN IV], the AFI in the test on Spodoptera littoralis was determined as 48%; with Spodoptera frugiperda, 61%.
